Test results: publication PMC9268305, “The Pharmacokinetics in Mice and Cell Uptake of Thymus Immunosuppressive Pentapeptide Using LC-MS/MS Analysis” (Molecules, 2022)
Entries after “also recorded” stand apart in the source; their conditions may differ. One block for each compound: values may come before it. Where a SMILES comes first, the peptide text is derived from it. The star is where a group is joined. FITC = O=C1OC2(c3ccc(O)cc3Oc3cc(O)ccc32)c2ccc(NC(=S)*)cc21; Ahx = NCCCCCC(=O)O

How the values were obtained:
[1] = Stability of TIPP in processed murine plasma samples (LC-MS/MS validation); format: in vitro ADME, mouse; conditions: compared to nominal concentration, mean ± SD, n = 3, in % (unit assumed)
Description: The stability of TIPP in plasma samples was investigated under different conditions. To evaluate autosampler stability, long-term stability, and short-term stability, up to three replicates of LQC and HQC plasma samples were evaluated when the samples were stored at room temperature for 4 h, at 4 °C for 24 h, and at −80 °C for 4 weeks, respectively. Freeze–thaw stability was also assessed in three cycles from −80 to 25 °C. Concentrations were determined using a TIPP calibrator of the respective validation day. Obtained results were compared to nominal concentrations to determine the stability.

[2] = Sample-preparation stability/recovery of TIPP in water and murine plasma, with stabilizers; format: in vitro ADME, mouse
Description: TIPP stock solutions were separately diluted in TDW or murine plasma at a concentration of 1 μg/mL. Samples (10 μL) were subjected to protein precipitation either immediately or after 10 min incubation at room temperature (around 25 °C). A series of reagents were used for protein precipitation, including MeOH (300 μL) and 2% FA-ACN of different volumes (300, 140, 100, and 70 μL). After brief vortex, the samples were centrifuged at 15,000 rcf at 4 °C for 10 min, and the supernatants were collected for chromatographic analysis. In order to increase the signal intensity of highly water-soluble TIPP in organic solvents, a group of liquid–liquid extraction was carried out to separate the aqueous phase from the organic phase. After treating with 300 μL of 2% FA-ACN, the resulting supernatants (300 μL) were mixed with 500 μL of DCM for backwashing. […] After sample preparation, the processed samples were stored at −80 °C until analysis. Before sampling, the prepared sample was thawed, vortexed, and placed in the autosampler.
To choose the optimal stabilizer, the performance of DTT (30 mg/mL), L-AA (10 mg/mL), and PMSF (50 μg/mL) was evaluated. Plasma (90 μL) was mixed with each stabilizer (20 μL), and TIPP (10 μL, 5 μg/mL). The samples were subjected to protein precipitation either immediately or after 10 min incubation at room temperature. For protein precipitation, the samples added with 10 μL of S4 (3 μg/mL) were mixed with 300 μL of 2% FA-ACN and processed as discussed in Section 4.3.1. The aqueous layer was collected for chromatographic analysis. The recovery of TIPP with each stabilizer was determined. Moreover, the stabilizing effect of DTT was further evaluated with different concentrations (2.5, 5, 10, 20, 25, and 40 mg/mL), following the above protocol.

[3] = Elimination of TIPP after intravenous injection in mice (data not shown); format: in vivo
[4] = mouse, in vivo, sc, 50 mg/kg
Description: (§1) Whole blood was collected from inner canthus into a tube containing ethylenediaminetetraacetic acid (EDTA) and centrifuged at 5000 rcf for 3 min. Subsequently, 10 μL of plasma samples were diluted with 90 μL TDW. The sample processing process is then executed, and the diluted samples were mixed with 10 μL of S4 solution (3 μg/mL) and 300 μL of 2% FA-ACN in a tube containing 20 μL of DTT solution (25 mg/mL). After centrifugation at 15,000 rcf for 10 min, 300 μL supernatant was transferred to a new tube containing 500 μL of DCM. The mixture was vortexed and centrifuged at 15,000 rcf for 10 min, and the aqueous layer was loaded into the LC-MS/MS system.
(§2) After 4 h fasting (ad libitum water intake), mice were subcutaneously injected with 50 mg/kg TIPP. At 0.5, 1, 2, 5, 10, 15, 20, and 40 min post administration (eight mice at each time points), blood samples were taken from an inner canthus into tubes containing Na2·EDTA and centrifuged at 5000 rcf for 10 min to obtain plasma. All samples were processed as described in Section 4.5.1 immediately.
(§3) PK parameters were calculated as mean ± standard deviation (SD). The Cmax and the time to reach Tmax were calculated based on the highest concentration and the corresponding time point, and t1/2 was calculated from C0 to C40. The area under the curve during the 40 min window (AUC0→40) and the extrapolated value (AUC0→∞) were calculated using the trapezoidal rule, and the elimination rate and concentration at 40 min were extrapolated from 40 min to infinity. The CL/F and Vd/F were calculated using the first-order one-compartment model.
(§4) Analyst® 1.5 software (AB SCIEX) was used for HPLC-MS/MS data processing. A non-compartmental model was employed to fit the PK of TIPP in mice plasma using DAS 2.0 software. […] Results were compared using t test or one-way analysis of variance, which was followed by Dunnett’s multiple comparisons test, with p < 0.05 considered significant.

RBL-2H3 cells [5] = system: RBL-2H3 cells
Description: (§5) RBL-2H3 cells were obtained from the Cell Resource Center of Shanghai Institutes for Biological Sciences (Shanghai, China) and cultured in complete MEM containing 15% heat-inactivated FBS in a 37 °C incubator (5% CO2 and 95% air). […] To prepare final cell rinse samples, the cells were removed, the supernatant was rinsed with 1 mL of PBS five times, and 90 μL of the final cell rinse was collected and mixed with 10 μL of S4 solution (3 μg/mL) for chromatographic analysis directly. For the preparation of cell lysate samples, the cells (about 10^6 cells) were lysed with 130 μL of RIPA buffer for 30 min on ice, and 100 μL of the cell lysate was collected for sample pre-processing following Section 4.5.1.
(§6) RBL-2H3 cells were seeded in a 35 mm diameter dish at 8 × 10^5 cells and treated with 200 μg/mL TIPP for different durations (5 min, 10 min, 20 min, 30 min, 40 min, 1 h, 3 h, 6 h, 12 h, and 24 h). Then, the cells were subjected to the pre-processing procedures to prepare cell lysates, cell culture supernatants and the final cell rinse samples (Section 4.5.2). In addition, to study TIPP intracellular degradation, the cells were incubated with TIPP for 40 min, which was followed by incubation with TIPP-free medium for 10, 20, 30, 40, and 60 min, respectively. The cell lysates were then harvested at the above time points and pre-processed as presented in Section 4.5.2.

[6] = PK of TIPP via subcutaneous injection in mice; conditions: female, BALB/c, mouse, plasma, sc, 50 mg/kg; for MRT: mice, 50 mg/kg subcutaneous, mean ± SD, n = 8
Description: as §1, §2, §3, §4

RBL-2H3 cells [7] = experiment: Uptake of TIPP in RBL-2H3 cells by LC-MS/MS (lysates, supernatants, final rinse)
Description: as §5, §6

RBL-2H3 cells [8] = experiment: Confocal visualization of cellular localization of FITC-TIPP; format: cell-based, rat; conditions: confocal microscope
Description: RBL-2H3 cells (4 × 10^4) were seeded in a 35 mm confocal dish and treated with 367 μg/mL FITC-TIPP for 0, 5, 10, 20, 30, 40, and 60 min, respectively. Then, the cells were fixed with 4% paraformaldehyde solution for 10 min and permeabilized with 0.1% Triton-100 for 5 min, which was followed by nuclear staining in a dark place with Hoechst 33342 for 5 min. Finally, the cells were washed, stained with DiI dye solution for 10 min, rinsed with PBS three times, and analyzed with a confocal microscope.

[9] = -SH group substituted with the -OH group; cited from earlier work
From the text: The pharmacokinetic properties in animals and its action mechanism also need to be studied using reliable, accurate, and sensitive methods in order to develop TIPP into a new drug. Short peptides can be analyzed using fluorescence labeling, immunoassay, and liquid chromatography-tandem mass spectrometry (LC-MS/MS). Although the visualization and quantification of fluorescently labeled peptides are widely used, there are still some drawbacks. One such flaw is that fluorescent labeling might change the structure of small molecules, resulting in the alteration of physical and chemi ...

Stability in murine plasma, 4 weeks at −80 °C, HQC ([1]; HQC 4000 ng/mL, 4 weeks at −80 °C): 90.70 ± 0.12 | Stability in murine plasma, 4 h at room temperature, HQC ([1]; HQC 4000 ng/mL, 4 h at room temperature): 98.02 ± 0.04 | Stability in murine plasma, 24 h at 4 °C, HQC ([1]; HQC 4000 ng/mL, autosampler 24 h at 4 °C): 99.35 ± 0.84 | Stability in murine plasma, three freeze-thaw cycles, HQC ([1]; HQC 4000 ng/mL, three freeze-thaw cycles at −80–25 °C): 106.00 ± 0.16 | Stability in murine plasma, 4 weeks at −80 °C, LQC ([1]; LQC 50 ng/mL, 4 weeks at −80 °C): 90.70 ± 1.61 | Stability in murine plasma, 24 h at 4 °C, LQC ([1]; LQC 50 ng/mL, autosampler 24 h at 4 °C): 103.64 ± 2.00 | Stability in murine plasma, three freeze-thaw cycles, LQC ([1]; LQC 50 ng/mL, three freeze-thaw cycles at −80–25 °C): 94.23 ± 0.02 | Stability of TIPP in aqueous solution ([2]; 1 μg/mL in TDW, 10 min at room temperature (around 25 °C), protein precipitation with only organic reagents, LC-MS/MS intensity): remained stable | Stability of TIPP in plasma without stabilizer ([2]; 1 μg/mL in murine plasma, 10 min at room temperature (around 25 °C), protein precipitation with only organic reagents, LC-MS/MS intensity): intensity decreased significantly | Average recovery of TIPP in plasma with DTT as stabilizer ([2]; murine plasma, 20 mg/mL DTT, immediately or after 10 min at room temperature, LC-MS/MS, n = 3): higher than 95% | Elimination after intravenous injection [3]: rapid elimination | CL/F (apparent clearance rate) [4]: 6.34 ± 1.45 L/min/kg | Intracellular t1/2 of TIPP (RBL-2H3 cells [5]): 5.596 min | AUC(0-inf) [6]: 136 ng·h/mL | AUC(0-t) [6]: 133 ng·h/mL | Cmax [6]: 623 ± 67.1 ng/mL | Tmax [6]: 10 min | Vd/F [6]: 54.4 ± 20.9 L/kg | half-life [6]: 5.99 ± 1.82 min | level at 40 min [6]: ~20 ng/mL | MRT ([6]; MRT(0–t)): 11.3 min | MRT ([6]; MRT(0–∞)): 12.5 min | Intracellular concentration of TIPP (cell lysate) at 20 min (RBL-2H3 cells [7]; 200 μg/mL TIPP, 20 min, cells rinsed five times with PBS, RIPA lysate, LC-MS/MS, n = 3): 24.57 ± 4.53 ng/mL | Concentration of TIPP in cell culture supernatant at 12 h (RBL-2H3 cells [7]; 200 μg/mL TIPP, MEM with 15% FBS, 37 °C, 12 h, LC-MS/MS, n = 3): below the detection limit | Concentration of TIPP in PBS rinse samples (RBL-2H3 cells [7]; 200 μg/mL TIPP, all PBS rinse samples, detection limit, LC-MS/MS): < 0.1 ng/mL | Residual TIPP in the final cell rinse PBS (in words) (RBL-2H3 cells [7]; 200 μg/mL TIPP, fifth PBS rinse, LC-MS/MS): No residual TIPP was detected | Intracellular concentration of TIPP (cell lysate), plateau (RBL-2H3 cells [7]; 200 μg/mL TIPP, from 30 min onwards, RIPA lysate, LC-MS/MS, n = 3): 38.62 ± 2.47 ng/mL
Compound: C[C@H](N)C(=O)N[C@@H](CCC(=O)O)C(=O)N[C@@H](Cc1c[nH]c2ccccc12)C(=O)N[C@@H](CS)C(=O)N1CCC[C@H]1C(=O)O (H-AEWCP-OH)
Intracellular TIPP about 30 min after substituting TIPP-free medium (in words) (RBL-2H3 cells [7]; 40 min with 200 μg/mL TIPP, then TIPP-free medium for 30 min, cell lysates): almost eliminated; also recorded: decreased to near LLOQ

Compound: C[C@H](NC(=O)CCCCCNC(=S)Nc1ccc2c(c1)C(=O)OC21c2ccc(O)cc2Oc2cc(O)ccc21)C(=O)N[C@@H](CCC(=O)O)C(=O)N[C@@H](Cc1c[nH]c2ccccc12)C(=O)N[C@@H](CS)C(=O)N1CCC[C@H]1C(=O)O [FITC-TIPP] ({FITC-Ahx}-AEWCP-OH)
Co-localization of FITC-TIPP with RBL-2H3 cells (RBL-2H3 cells [8]; 367 μg/mL FITC-TIPP (same molar concentration as 200 μg/mL TIPP), fluorescence): co-localized with RBL-2H3 cells at 10 min | Fluorescent signal of FITC-TIPP in cells over time (RBL-2H3 cells [8]; 367 μg/mL FITC-TIPP, after 30 min, Hoechst 33342 and DiI staining): remained steady after 30 min with significant intranuclear enrichment

Compound: AEWSP [S4, analog of TIPP (AEWSP), used as the internal standard of the LC-MS/MS method]
Stability compared with TIPP [9]: significantly improved
